Results reported in publication PMC8025909, “Repurposing of Sitagliptin- Melittin Optimized Nanoformula against SARS-CoV-2; Antiviral Screening and Molecular Docking Studies” (Pharmaceutics, 2021).

Target: T1, SARS-CoV-2 3CL Protease (3C-like protease, Mpro, 3CLpro) (Severe acute respiratory syndrome coronavirus 2, UniProt P0DTD1)
T1 construct: gene rep; full-length mature nsp5 a.a; supplier apparently BPS Bioscience
Assay: biochemical

N[C@@H](CC(=O)N1CCn2c(nnc2C(F)(F)F)C1)Cc1cc(F)c(F)cc1F [sitagliptin]
IC50: 6.914 ± 0.034 µM
